Source: patent US12227522B2, “Synthesis of structural analogs of largazole and associated compounds” (COLORADO STATE UNIVERSITY RESEARCH FOUNDATION, priority 2020, dated 2025)

Assays:
Assay type in all cases: biochemical
HDAC 8 = molecular target: T1, HDAC 8 (Homo sapiens, UniProt Q9BY41); experiment: in vitro HDAC inhibition, HDAC isoform 8; conditions: Class 1, in vitro; read-out: HDAC inhibition as IC50, HDAC Isoform 8
T1 sequence (Q9BY41 1-377): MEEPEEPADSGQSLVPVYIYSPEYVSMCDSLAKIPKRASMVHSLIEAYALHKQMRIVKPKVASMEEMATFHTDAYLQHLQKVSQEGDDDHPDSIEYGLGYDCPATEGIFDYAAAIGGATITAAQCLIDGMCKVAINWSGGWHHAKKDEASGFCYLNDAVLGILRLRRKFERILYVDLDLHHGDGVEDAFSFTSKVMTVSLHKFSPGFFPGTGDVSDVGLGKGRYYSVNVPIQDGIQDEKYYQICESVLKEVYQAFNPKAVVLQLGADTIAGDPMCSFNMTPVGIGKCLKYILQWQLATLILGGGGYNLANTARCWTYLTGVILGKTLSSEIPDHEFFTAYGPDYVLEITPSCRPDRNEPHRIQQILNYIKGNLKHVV

HDAC 6 = molecular target: T2, HDAC 6 (Homo sapiens, UniProt Q9UBN7); experiment: in vitro HDAC inhibition, HDAC isoform 6; conditions: Class 2b, read-out: HDAC inhibition as IC50, HDAC Isoform 6
T2 sequence (Q9UBN7 1-1215): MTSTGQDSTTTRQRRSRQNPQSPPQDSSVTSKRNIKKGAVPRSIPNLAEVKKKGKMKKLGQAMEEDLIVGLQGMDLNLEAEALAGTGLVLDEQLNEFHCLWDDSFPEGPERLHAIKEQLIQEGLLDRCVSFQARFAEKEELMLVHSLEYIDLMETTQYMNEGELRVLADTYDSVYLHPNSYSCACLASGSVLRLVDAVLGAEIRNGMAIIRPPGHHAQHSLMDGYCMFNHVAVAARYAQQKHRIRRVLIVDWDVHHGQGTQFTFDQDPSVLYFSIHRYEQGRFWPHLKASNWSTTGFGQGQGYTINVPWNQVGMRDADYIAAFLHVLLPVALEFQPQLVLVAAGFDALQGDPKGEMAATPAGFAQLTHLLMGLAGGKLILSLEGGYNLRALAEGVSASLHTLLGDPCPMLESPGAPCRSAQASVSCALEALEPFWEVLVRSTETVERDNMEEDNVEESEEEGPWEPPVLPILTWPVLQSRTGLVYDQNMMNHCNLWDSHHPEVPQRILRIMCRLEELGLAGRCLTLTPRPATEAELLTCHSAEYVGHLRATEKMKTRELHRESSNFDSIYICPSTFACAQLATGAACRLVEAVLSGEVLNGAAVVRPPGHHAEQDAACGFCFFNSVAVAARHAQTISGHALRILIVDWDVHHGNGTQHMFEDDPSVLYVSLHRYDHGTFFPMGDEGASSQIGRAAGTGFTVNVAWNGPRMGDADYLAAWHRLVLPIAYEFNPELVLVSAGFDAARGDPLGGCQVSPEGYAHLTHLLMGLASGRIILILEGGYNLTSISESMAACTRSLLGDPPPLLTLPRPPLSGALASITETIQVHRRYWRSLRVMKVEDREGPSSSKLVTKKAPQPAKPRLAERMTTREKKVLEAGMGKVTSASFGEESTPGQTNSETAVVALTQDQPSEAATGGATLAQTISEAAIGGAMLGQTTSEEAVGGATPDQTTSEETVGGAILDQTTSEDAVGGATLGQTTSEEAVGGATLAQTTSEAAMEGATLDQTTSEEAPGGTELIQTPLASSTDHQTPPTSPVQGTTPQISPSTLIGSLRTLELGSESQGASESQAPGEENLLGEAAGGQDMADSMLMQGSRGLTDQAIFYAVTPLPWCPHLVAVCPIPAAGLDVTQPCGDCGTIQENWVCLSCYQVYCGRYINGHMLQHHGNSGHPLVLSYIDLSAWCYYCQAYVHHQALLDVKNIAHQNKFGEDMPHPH

HDAC 2 = HDAC 2 (Homo sapiens, UniProt Q92769); experiment: in vitro HDAC inhibition, HDAC isoform 2; conditions: Class 1, in vitro; read-out: HDAC inhibition as IC50, HDAC Isoform 2
HDAC 5 = HDAC 5 (Homo sapiens, UniProt Q9UQL6); experiment: in vitro HDAC inhibition, HDAC isoform 5; conditions: Class 2a, read-out: HDAC inhibition as IC50, HDAC Isoform 5
HDAC 3 = HDAC 3 (Homo sapiens, UniProt O15379); experiment: in vitro HDAC inhibition, HDAC isoform 3; conditions: Class 1, in vitro; read-out: HDAC inhibition as IC50, HDAC Isoform 3
HDAC 1 = HDAC 1 (Homo sapiens, UniProt Q13547); experiment: in vitro HDAC inhibition, HDAC isoform 1; conditions: Class 1, in vitro; read-out: HDAC inhibition as IC50, HDAC Isoform 1
HDAC 4 = HDAC 4 (Homo sapiens, UniProt P56524); experiment: in vitro HDAC inhibition, HDAC isoform 4; conditions: Class 2a, read-out: HDAC inhibition as IC50, HDAC Isoform 4
HDAC 7 = molecular target: T3, HDAC 7 (Homo sapiens, UniProt Q8WUI4); experiment: in vitro HDAC inhibition, HDAC isoform 7; conditions: Class 2a, read-out: HDAC inhibition as IC50, HDAC Isoform 7
T3 sequence (Q8WUI4 1-952): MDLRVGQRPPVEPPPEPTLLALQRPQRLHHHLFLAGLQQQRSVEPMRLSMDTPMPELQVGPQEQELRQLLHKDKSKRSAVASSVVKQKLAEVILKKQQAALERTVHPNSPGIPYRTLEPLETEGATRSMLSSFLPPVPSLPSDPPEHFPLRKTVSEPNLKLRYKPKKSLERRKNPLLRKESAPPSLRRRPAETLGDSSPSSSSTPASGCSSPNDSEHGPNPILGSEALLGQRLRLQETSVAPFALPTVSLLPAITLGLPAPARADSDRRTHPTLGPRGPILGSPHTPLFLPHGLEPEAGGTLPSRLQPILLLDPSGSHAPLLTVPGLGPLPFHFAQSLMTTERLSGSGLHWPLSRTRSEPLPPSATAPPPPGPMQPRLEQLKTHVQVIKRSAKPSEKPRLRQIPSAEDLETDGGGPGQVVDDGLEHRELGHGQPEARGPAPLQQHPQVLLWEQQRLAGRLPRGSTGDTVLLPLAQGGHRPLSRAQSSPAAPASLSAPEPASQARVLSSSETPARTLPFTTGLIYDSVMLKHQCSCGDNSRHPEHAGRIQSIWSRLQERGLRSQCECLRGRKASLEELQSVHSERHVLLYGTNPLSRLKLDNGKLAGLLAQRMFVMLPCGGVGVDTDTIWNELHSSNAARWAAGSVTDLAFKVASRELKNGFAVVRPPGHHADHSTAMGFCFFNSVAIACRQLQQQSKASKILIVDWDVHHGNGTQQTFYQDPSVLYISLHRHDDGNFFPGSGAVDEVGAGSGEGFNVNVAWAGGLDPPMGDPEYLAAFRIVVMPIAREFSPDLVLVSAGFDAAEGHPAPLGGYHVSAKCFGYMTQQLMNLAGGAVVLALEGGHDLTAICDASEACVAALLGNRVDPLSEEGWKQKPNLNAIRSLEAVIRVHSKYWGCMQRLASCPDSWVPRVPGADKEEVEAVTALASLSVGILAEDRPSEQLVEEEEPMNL

HDAC 9 = HDAC 9 (Homo sapiens, UniProt Q9UKV0); experiment: in vitro HDAC inhibition, HDAC isoform 9; conditions: Class 2a, read-out: HDAC inhibition as IC50, HDAC Isoform 9
HDAC 11 = molecular target: T4, HDAC 11 (Homo sapiens, UniProt Q96DB2); experiment: in vitro HDAC inhibition, HDAC isoform 11; conditions: Class 4, in vitro; read-out: HDAC inhibition as IC50, HDAC Isoform 11
T4 sequence (Q96DB2 1-347): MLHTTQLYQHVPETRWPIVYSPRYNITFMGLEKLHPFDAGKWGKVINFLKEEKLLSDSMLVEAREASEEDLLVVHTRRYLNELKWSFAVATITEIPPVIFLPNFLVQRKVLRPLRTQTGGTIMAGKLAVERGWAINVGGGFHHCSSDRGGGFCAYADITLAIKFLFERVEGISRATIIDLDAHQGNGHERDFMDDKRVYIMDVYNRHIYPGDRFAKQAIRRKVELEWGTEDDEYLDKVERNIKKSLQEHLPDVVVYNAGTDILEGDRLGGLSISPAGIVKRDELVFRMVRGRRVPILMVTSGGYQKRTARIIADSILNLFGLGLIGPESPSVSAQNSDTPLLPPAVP

Measured: IC50

Sequence of HDAC 2 (Q92769 whole entry, canonical isoform): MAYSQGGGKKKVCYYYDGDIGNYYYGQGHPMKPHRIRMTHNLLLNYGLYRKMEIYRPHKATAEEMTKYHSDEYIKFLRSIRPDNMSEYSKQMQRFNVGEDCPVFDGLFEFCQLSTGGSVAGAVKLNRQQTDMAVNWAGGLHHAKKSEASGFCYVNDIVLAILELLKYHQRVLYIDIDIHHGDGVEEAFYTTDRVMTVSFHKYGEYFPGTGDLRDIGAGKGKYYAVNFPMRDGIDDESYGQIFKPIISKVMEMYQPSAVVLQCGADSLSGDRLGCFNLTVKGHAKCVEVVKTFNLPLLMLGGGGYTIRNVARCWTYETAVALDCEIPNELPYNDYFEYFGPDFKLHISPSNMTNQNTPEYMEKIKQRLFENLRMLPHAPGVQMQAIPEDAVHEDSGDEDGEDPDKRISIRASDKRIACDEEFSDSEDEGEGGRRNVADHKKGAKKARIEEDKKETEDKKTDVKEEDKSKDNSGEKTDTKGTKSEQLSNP
Sequence of HDAC 3 (O15379 whole entry, canonical isoform): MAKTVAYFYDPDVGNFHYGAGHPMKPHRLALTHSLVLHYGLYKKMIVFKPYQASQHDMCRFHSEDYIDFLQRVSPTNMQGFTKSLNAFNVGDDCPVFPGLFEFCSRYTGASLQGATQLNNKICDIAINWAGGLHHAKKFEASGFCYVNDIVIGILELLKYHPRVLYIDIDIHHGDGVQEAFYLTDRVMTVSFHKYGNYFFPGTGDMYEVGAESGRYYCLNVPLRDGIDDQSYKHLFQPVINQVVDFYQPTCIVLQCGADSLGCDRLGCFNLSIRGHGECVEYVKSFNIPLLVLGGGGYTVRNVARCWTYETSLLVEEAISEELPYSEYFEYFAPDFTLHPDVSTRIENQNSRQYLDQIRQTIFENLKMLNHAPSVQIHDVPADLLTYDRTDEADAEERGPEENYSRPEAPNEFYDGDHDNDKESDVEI
Sequence of HDAC 3 (Q9Y618 395-489 partner limits assumed): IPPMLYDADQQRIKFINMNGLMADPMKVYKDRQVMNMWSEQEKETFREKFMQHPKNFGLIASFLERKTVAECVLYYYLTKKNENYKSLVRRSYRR
Sequence of HDAC 5 (Q9UQL6 whole entry, canonical isoform): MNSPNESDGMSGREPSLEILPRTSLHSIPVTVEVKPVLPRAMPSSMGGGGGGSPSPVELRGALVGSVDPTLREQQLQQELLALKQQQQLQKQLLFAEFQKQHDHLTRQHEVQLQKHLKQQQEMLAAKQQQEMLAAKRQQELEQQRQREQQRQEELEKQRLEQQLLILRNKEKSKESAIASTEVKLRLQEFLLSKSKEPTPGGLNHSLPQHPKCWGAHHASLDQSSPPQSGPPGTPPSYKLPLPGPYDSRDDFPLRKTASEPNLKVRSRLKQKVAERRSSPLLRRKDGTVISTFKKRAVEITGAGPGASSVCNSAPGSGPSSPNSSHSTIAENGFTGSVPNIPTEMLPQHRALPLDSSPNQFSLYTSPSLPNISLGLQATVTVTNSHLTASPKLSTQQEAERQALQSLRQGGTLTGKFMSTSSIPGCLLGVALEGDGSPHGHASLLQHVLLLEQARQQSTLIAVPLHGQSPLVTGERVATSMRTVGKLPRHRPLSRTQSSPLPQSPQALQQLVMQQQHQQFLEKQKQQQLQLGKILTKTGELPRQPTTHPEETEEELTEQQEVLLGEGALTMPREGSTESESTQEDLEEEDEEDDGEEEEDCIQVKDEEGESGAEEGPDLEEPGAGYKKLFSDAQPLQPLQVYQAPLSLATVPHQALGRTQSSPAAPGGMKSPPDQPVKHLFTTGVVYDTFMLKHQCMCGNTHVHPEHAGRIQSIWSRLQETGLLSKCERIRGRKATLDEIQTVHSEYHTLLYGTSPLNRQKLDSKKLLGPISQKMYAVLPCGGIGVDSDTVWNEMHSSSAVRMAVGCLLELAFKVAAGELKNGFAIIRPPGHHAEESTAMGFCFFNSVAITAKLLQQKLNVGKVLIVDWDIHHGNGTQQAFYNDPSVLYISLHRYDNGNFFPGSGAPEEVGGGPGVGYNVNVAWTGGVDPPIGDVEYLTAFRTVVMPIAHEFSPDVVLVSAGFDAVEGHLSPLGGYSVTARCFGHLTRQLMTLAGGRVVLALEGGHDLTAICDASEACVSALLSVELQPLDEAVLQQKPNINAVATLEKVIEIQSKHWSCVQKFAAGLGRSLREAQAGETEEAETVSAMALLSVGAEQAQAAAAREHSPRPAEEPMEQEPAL
Sequence of HDAC 4 (P56524 whole entry, canonical isoform): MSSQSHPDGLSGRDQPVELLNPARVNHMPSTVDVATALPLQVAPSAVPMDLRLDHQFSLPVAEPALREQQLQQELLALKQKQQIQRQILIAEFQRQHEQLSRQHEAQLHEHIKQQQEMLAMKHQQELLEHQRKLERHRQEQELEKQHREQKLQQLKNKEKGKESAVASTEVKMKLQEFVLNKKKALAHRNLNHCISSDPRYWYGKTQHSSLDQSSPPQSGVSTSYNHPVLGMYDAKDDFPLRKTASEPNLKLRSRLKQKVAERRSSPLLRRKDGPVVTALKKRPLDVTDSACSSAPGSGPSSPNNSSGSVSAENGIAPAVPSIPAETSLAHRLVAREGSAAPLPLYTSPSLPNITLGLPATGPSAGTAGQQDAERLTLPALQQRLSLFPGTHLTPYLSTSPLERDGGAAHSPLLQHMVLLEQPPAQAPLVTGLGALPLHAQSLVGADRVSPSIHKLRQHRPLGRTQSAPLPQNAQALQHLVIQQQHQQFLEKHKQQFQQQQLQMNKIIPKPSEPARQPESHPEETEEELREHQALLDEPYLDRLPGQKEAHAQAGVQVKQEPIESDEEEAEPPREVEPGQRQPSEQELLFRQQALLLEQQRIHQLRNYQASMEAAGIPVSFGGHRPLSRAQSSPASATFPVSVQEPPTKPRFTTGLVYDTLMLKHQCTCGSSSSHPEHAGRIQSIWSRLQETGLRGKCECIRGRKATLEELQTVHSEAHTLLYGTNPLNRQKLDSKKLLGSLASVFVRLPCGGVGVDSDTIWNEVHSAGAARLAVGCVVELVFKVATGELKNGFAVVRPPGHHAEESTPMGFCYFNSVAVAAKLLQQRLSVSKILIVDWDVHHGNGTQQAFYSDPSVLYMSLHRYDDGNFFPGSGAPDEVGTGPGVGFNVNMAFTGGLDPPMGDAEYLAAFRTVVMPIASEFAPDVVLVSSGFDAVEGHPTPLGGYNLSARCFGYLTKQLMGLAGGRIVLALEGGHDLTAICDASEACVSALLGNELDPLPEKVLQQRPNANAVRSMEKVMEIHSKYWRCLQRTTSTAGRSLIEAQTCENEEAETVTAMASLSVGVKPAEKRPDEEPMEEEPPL
Sequence of HDAC 1 (Q13547 whole entry, canonical isoform): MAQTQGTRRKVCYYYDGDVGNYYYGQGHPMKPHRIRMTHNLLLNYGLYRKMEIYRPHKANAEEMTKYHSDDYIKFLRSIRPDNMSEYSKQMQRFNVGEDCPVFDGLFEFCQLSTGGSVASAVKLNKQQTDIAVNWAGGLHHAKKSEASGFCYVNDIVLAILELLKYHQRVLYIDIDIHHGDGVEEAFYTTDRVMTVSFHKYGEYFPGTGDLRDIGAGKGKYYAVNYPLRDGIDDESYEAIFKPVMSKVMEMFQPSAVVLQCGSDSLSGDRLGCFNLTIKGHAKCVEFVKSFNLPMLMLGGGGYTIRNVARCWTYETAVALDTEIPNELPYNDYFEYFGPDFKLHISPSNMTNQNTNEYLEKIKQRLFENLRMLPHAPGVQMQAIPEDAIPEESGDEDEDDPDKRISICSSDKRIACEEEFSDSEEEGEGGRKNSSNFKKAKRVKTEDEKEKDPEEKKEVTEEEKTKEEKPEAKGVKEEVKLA
Sequence of HDAC 9 (Q9UKV0 whole entry, canonical isoform): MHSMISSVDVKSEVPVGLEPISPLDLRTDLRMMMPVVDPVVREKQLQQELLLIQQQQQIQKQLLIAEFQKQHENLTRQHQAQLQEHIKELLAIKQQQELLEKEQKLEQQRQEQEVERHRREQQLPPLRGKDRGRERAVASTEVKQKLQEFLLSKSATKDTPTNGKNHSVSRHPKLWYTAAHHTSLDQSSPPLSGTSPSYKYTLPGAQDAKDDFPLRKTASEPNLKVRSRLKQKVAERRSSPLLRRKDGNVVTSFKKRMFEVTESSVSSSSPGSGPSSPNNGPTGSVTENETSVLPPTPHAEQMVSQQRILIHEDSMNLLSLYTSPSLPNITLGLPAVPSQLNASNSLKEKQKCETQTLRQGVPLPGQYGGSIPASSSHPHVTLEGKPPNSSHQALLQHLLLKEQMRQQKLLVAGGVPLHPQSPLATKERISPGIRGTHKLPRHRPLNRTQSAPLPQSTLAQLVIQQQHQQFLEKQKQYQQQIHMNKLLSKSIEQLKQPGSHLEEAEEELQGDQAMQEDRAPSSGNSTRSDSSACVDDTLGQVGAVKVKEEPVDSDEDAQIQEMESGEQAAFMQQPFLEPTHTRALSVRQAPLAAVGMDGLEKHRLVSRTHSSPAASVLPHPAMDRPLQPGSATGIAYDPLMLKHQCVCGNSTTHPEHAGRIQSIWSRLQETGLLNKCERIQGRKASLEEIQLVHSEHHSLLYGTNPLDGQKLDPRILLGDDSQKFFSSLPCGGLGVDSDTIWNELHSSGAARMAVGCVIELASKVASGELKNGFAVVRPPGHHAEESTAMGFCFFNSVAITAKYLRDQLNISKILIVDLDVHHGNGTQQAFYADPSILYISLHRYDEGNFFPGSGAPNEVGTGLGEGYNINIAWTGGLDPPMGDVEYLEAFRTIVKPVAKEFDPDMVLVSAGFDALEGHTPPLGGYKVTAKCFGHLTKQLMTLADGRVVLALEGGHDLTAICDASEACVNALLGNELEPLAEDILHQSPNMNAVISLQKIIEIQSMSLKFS

CC(C)[C@@H]1NC(=O)[C@]2(C)CSC(=N2)c2csc(n2)CNC(=O)C[C@@H](/C=C/CCO)NC1=O
> 10 mM: HDAC 8 | HDAC 6 | HDAC 2 | HDAC 5 | HDAC 3 | HDAC 1 | HDAC 4 | HDAC 7 | HDAC 9 | HDAC 11
